Assay results as given in the supplement of paper PMC13380429.

Key:
Conditions in all cases: 72 h
Caco-2 [1] = experiment: cell viability relative to DMSO; higher = less toxic
Calu-3 [2] = experiment: as above
U2OS [3] = experiment: as above
Caco-2 [4] = experiment: relative viability EC50 (midpoint between 100% and the lowest measured viability); higher = less toxic
Calu-3 [5] = experiment: as above
U2OS [6] = experiment: as above
Caco-2 [7] = experiment: drug sensitivity score (DSS) for viability; higher = more toxic; extreme values may be limits of the assay
Calu-3 [8] = experiment: as above
U2OS [9] = experiment: as above
HepG2 [10] = experiment: cell viability relative to DMSO; higher = less toxic
HepG2 [11] = experiment: relative viability EC50 (midpoint between 100% and the lowest measured viability); higher = less toxic
HepG2 [12] = experiment: drug sensitivity score (DSS) for viability; higher = more toxic; extreme values may be limits of the assay
Vero E6 [13] = experiment: cell viability relative to DMSO; higher = less toxic
Vero E6 [14] = experiment: drug sensitivity score (DSS) for viability; higher = more toxic; extreme values may be limits of the assay

| SMILES | cell viability (Caco-2 [1]; 1 nM) | cell viability (Caco-2 [1]; 10 nM) | cell viability (Caco-2 [1]; 100 nM) | cell viability (Caco-2 [1]; 1000 nM) | cell viability (Caco-2 [1]; 10000 nM) | cell viability (Calu-3 [2]; 1 nM) | cell viability (Calu-3 [2]; 10 nM) | cell viability (Calu-3 [2]; 100 nM) | cell viability (Calu-3 [2]; 1000 nM) | cell viability (Calu-3 [2]; 10000 nM) | cell viability (U2OS [3]; 1 nM) | cell viability (U2OS [3]; 10 nM) | cell viability (U2OS [3]; 100 nM) | cell viability (U2OS [3]; 1000 nM) | cell viability (U2OS [3]; 10000 nM) | relative viability EC50 (Caco-2 [4]) | relative viability EC50 (Calu-3 [5]) | relative viability EC50 (U2OS [6]) | drug sensitivity score (Caco-2 [7]) | drug sensitivity score (Calu-3 [8]) | drug sensitivity score (U2OS [9]) | cell viability (HepG2 [10]; 1 nM) | cell viability (HepG2 [10]; 10 nM) | cell viability (HepG2 [10]; 100 nM) | cell viability (HepG2 [10]; 1000 nM) | cell viability (HepG2 [10]; 10000 nM) | relative viability EC50 (HepG2 [11]) | drug sensitivity score (HepG2 [12]) | cell viability (Vero E6 [13]; 1 nM) | cell viability (Vero E6 [13]; 10 nM) | cell viability (Vero E6 [13]; 100 nM) | cell viability (Vero E6 [13]; 1000 nM) | cell viability (Vero E6 [13]; 10000 nM) | drug sensitivity score (Vero E6 [14]) |
| --- | --- | --- | --- | --- | --- | --- | --- | --- | --- | --- | --- | --- | --- | --- | --- | --- | --- | --- | --- | --- | --- | --- | --- | --- | --- | --- | --- | --- | --- | --- | --- | --- | --- | --- |
| CC(=O)Nc1ccc(CC(=O)O)cc1 [actarit] | 96% | 94% | 93.7% | 99.9% | 96% | 105% | 104% | 117% | 107% | 97.8% | 98.1% | 101% | 94.8% | 103% | 96.4% | > 10 µM | > 10 µM | > 10 µM | 0 | 0 | 0 | – | – | – | – | – | – | – | – | – | – | – | – | – |
| CCS(=O)(=O)c1ccc2oc(-c3ccc4ccccc4c3)nc2c1 [ezutromid] | 103% | 89% | 91.4% | 91.8% | 90.2% | – | – | – | – | – | 101% | 97.7% | 105% | 97.4% | 97.2% | > 10 µM | – | > 10 µM | 0.7 | – | 0 | 99.8% | 121% | 102% | 102% | 94.3% | > 10 µM | 0 | – | – | – | – | – | – |
| Cc1cc(Nc2cc(CN3CCOCC3)c3nc(C)c(Cc4ccc(Cl)cc4F)n3n2)n[nH]1 | 102% | 98.2% | 105% | 96.7% | 62.8% | 107% | 99.7% | 97.1% | 91% | 50.6% | 104% | 105% | 104% | 99.4% | 29.6% | – | – | 3.11 µM | 2.3 | 4.1 | 4 | 101% | 105% | 97.5% | 75.5% | 32.7% | 1.29 µM | 6.9 | 96.4% | 98% | 96.8% | 95.8% | 70.7% | 1.9 |
| NS(=O)(=O)c1cc2c(cc1Cl)NCNS2(=O)=O [hydrochlorothiazide] | – | – | – | – | – | – | – | – | – | – | – | – | – | – | – | – | – | – | – | 0 | 0 | – | – | – | – | – | – | – | – | – | – | – | – | 0 |
| CC(=O)OC[C@H]1O[C@@H](n2ccc(=O)[nH]c2=O)[C@H](OC(C)=O)[C@@H]1OC(C)=O [uridine-triacetate] | 101% | 110% | 114% | 97.2% | 115% | – | – | – | – | – | – | – | – | – | – | > 10 µM | – | – | 0 | – | – | 106% | 113% | 106% | 109% | 95.4% | > 10 µM | 0 | – | – | – | – | – | – |
| NC(=O)c1cccc2cn(-c3ccc([C@@H]4CCCNC4)cc3)nc12 [niraparib] | 92.7% | 106% | 89.9% | 96.4% | 88.1% | 97% | 104% | 110% | 106% | 97.6% | 101% | 95.4% | 101% | 97.3% | 106% | > 10 µM | > 10 µM | > 10 µM | 0 | 0 | 0 | 83.9% | 109% | 99.4% | 95.4% | 62.9% | – | 2.5 | 102% | 102% | 102% | 95.8% | 73% | 1.7 |
| CC(=O)C1=C(O)[C@@H]2[C@H]3c4c[nH]c5cccc(c45)C[C@H]3C(C)(C)N2C1=O [cyclopiazonic-acid] | 99.9% | 106% | 107% | 106% | 81.9% | 105% | 98.1% | 102% | 95.7% | 98.8% | 102% | 100% | 100% | 96.2% | 86.1% | > 10 µM | > 10 µM | > 10 µM | 0.3 | 0 | 0.4 | 110% | 105% | 103% | 97.2% | 64.3% | – | 2.1 | 100% | 96.5% | 94.3% | 95.3% | 65.6% | 2.4 |
| COc1cc(N2CCC(O)CC2)ccc1Nc1cc(Nc2ccccc2S(=O)(=O)C(C)C)c2cc[nH]c2n1 [Mps1-IN-1] | 102% | 92.2% | 97.4% | 101% | 53.9% | 101% | 114% | 90.9% | 102% | 85.6% | 103% | 101% | 101% | 98.3% | 70.2% | – | > 10 µM | – | 2.3 | 0.1 | 1.5 | 96.5% | 118% | 95.2% | 95.5% | 37.8% | 2.57 µM | 4.1 | 106% | 103% | 102% | 98.9% | 74% | 1.2 |
